Experimental data published in PMC6488038 (Journal of the American Chemical Society, 2018).

Test system: HCT116 cells
Test: Cell viability, Alamar Blue assay, HCT116
Assay type: cell-based, human
Details: 72 h

N#Cc1c2c(cc3c1C(=O)N[C@@H]1C3=C[C@H](O)[C@@H](O)[C@H]1O)OCO2 [compound 46, 7cyanolycoricidine]
activity compared to lycoricidine (3): increased activity
